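Assay format: 96-well plates, 48-hour exposure. The concentration for 50% growth inhibition is given as GI50.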 The source made the active and inactive calls. No stated cut-off is given here; in the data, active = GI50 up to about 1.1 µM and inactive = higher.
Legend:
Test in all cases: NCI-60 cell line screen, 48 h
NCI-H226 = tested on: NCI-H226
MDA-MB-231 = tested on: MDA-MB-231
NCI/ADR-RES = tested on: NCI/ADR-RES
HCT-116 = tested on: HCT-116
EKVX = tested on: EKVX
TK-10 = tested on: TK-10
M14 = tested on: M14
UACC-257 = tested on: UACC-257
Hs-578T = tested on: Hs-578T
MOLT-4 = tested on: MOLT-4
OVCAR-8 = tested on: OVCAR-8
SN12C = tested on: SN12C
SF-268 = tested on: SF-268
U-251 = tested on: U-251
A549 = tested on: A549
HL-60 = tested on: HL-60
OVCAR-3 = tested on: OVCAR-3
CAKI-1 = tested on: CAKI-1
HCC 2998 = tested on: HCC 2998
T47D = tested on: T47D

Measured: GI50

Nc1ncnc2c1ncn2Cc1cccc(CCl)c1
inactive: NCI-H226 16 µM | MDA-MB-231 16.6 µM | NCI/ADR-RES 18.5 µM | HCT-116 10.4 µM | EKVX 19.3 µM | TK-10 17 µM | M14 14.1 µM | UACC-257 14.8 µM | Hs-578T 22.8 µM | MOLT-4 15.2 µM | OVCAR-8 16.1 µM | SN12C 15.1 µM | SF-268 14.7 µM | U-251 13.8 µM | A549 21.8 µM | HL-60 15 µM | OVCAR-3 14.1 µM | CAKI-1 18.8 µM

COc1ccc2nc3ccc(OC)cc3c(S(=O)(=O)Cc3ccc([N+](=O)[O-])cc3)c2c1
inactive: NCI-H226 > 100 µM | MDA-MB-231 61.7 µM | NCI/ADR-RES > 100 µM | HCT-116 > 100 µM | EKVX > 100 µM | TK-10 > 100 µM | M14 > 100 µM | UACC-257 > 100 µM | HCC 2998 > 100 µM | MOLT-4 > 100 µM | OVCAR-8 > 100 µM | SN12C > 100 µM | SF-268 85.5 µM | U-251 > 100 µM | A549 > 100 µM | HL-60 > 100 µM | T47D > 100 µM | OVCAR-3 > 100 µM | CAKI-1 > 100 µM

COC(=O)C12C(=O)CC3CCC1C32C(=O)OC (stereo unspecified)
inactive: NCI-H226 > 100 µM | MDA-MB-231 > 100 µM | NCI/ADR-RES > 100 µM | HCT-116 > 100 µM | EKVX > 100 µM | TK-10 > 100 µM | M14 > 100 µM | UACC-257 > 100 µM | HCC 2998 > 100 µM | MOLT-4 > 100 µM | OVCAR-8 > 100 µM | SN12C > 100 µM | SF-268 > 100 µM | U-251 > 100 µM | A549 > 100 µM | OVCAR-3 > 100 µM | CAKI-1 > 100 µM

CC(C)(C)NCC(COc1ccc([N+](=O)[O-])cc1)OP(c1ccccc1)c1ccccc1 (stereo unspecified)
inactive: NCI-H226 29 µM | HCT-116 33 µM | EKVX 53.1 µM | TK-10 43.9 µM | M14 26.8 µM | UACC-257 44 µM | HCC 2998 42.4 µM | MOLT-4 18.9 µM | OVCAR-8 34.8 µM | SN12C 36.6 µM | SF-268 49.1 µM | U-251 41.5 µM | A549 40.6 µM | HL-60 19.7 µM | OVCAR-3 34 µM | CAKI-1 28.8 µM

O=C(CC(=O)c1cccc2ccccc12)C(=O)Nc1nccs1
inactive: NCI-H226 > 100 µM | HCT-116 > 100 µM | EKVX > 100 µM | TK-10 > 100 µM | M14 > 100 µM | UACC-257 > 100 µM | HCC 2998 > 100 µM | MOLT-4 > 100 µM | OVCAR-8 > 100 µM | SN12C > 100 µM | SF-268 > 100 µM | U-251 > 100 µM | A549 > 100 µM | HL-60 > 100 µM | OVCAR-3 > 100 µM | CAKI-1 > 100 µM

O=C(c1cccnc1)N1N=C(c2ccc3c(c2)OCO3)CC1(O)c1cc(F)c(Cl)cc1Cl (stereo unspecified)
inactive: NCI-H226 16.2 µM | MDA-MB-231 17.3 µM | NCI/ADR-RES 18.5 µM | HCT-116 16.3 µM | EKVX 20.5 µM | TK-10 39.1 µM | M14 31.8 µM | UACC-257 21.1 µM | Hs-578T 33 µM | MOLT-4 15.3 µM | OVCAR-8 18.8 µM | SN12C 18.5 µM | SF-268 19.9 µM | U-251 16.7 µM | A549 28.6 µM | HL-60 20.2 µM | T47D 3.59 µM | OVCAR-3 11 µM | CAKI-1 28.6 µM

O=C(c1cccs1)N(C(=O)N1CCCCC1)c1ccccc1
inactive: NCI-H226 > 100 µM | MDA-MB-231 > 100 µM | NCI/ADR-RES > 100 µM | HCT-116 > 100 µM | EKVX 14.8 µM | TK-10 > 100 µM | M14 > 100 µM | UACC-257 > 100 µM | Hs-578T 84.7 µM | MOLT-4 > 100 µM | OVCAR-8 > 100 µM | SN12C > 100 µM | SF-268 > 100 µM | U-251 > 100 µM | HL-60 > 100 µM | T47D > 100 µM | OVCAR-3 > 100 µM | CAKI-1 > 100 µM

O=C(O)c1ccccn1 [2-PICOLINIC ACID]
inactive: NCI-H226 > 100 µM | MDA-MB-231 > 100 µM | NCI/ADR-RES > 100 µM | HCT-116 > 100 µM | EKVX > 100 µM | TK-10 > 100 µM | M14 > 100 µM | UACC-257 > 100 µM | Hs-578T > 100 µM | MOLT-4 > 100 µM | OVCAR-8 > 100 µM | SN12C > 100 µM | SF-268 > 100 µM | U-251 > 100 µM | A549 > 100 µM | T47D > 100 µM | OVCAR-3 > 100 µM | CAKI-1 > 100 µM

Source: ChEMBL document CHEMBL1201862, “PubChem BioAssay data set” (2004)
